The source of these data is PMC11270968, “Antiplasmodial potential of isolated xanthones from Mesua ferrea Linn. roots: an in vitro and in silico molecular docking and pharmacokinetics study” (BMC Complementary Medicine and Therapies, 2024).

For one data set, the system named is P. falciparum 3D7. Also noted: method as in PMID 37029625. The note with it: chloroquine-sensitive P. falciparum 3D7; read-out: IC50 antiplasmodial activity; cited from earlier work.
For another data set, the system named is P. falciparum K1 strain. Kind of data set: in vitro antiplasmodial activity, parasite lactate dehydrogenase (pLDH) assay. Type of data set: cell-based, Plasmodium falciparum. The note with it: for antiplasmodial activity classification of pure compounds: P. falciparum K1, class by IC50; for IC50: Plasmodium falciparum, read-out: IC50 ± SD P. falciparum K1; for Selectivity index (SI): CC50 Vero cells / IC50 P. falciparum K1.

The nature of data set [1]: in vitro cytotoxicity, MTT assay. Type of data set: cell-based. The note with it: African green monkey, pure compounds and doxorubicin, 48 h, mean ± SD of three determinations; for CC50 at 48 h: Vero cells. The procedure:
(§1) The purpose of this study was to determine the cytotoxicity of crude extracts and pure compounds isolated from M. ferrea roots on Vero cells. The MTT assay was performed according to an established protocol. Briefly, Vero cells were cultured in Dulbecco’s Modified Eagle Medium (Gibco, USA) supplemented with 10% fetal bovine serum (FBS) (Sigma-Aldrich, New Delhi, India). Vero cell suspensions were seeded onto 96-well culture plates at a density of 1 × 10^4 cells per well. The seeded culture plates were incubated at 37 °C in a 5% CO2 atmosphere for 24 h to facilitate cell attachment. Subsequently, the cultured cells were exposed to the test extracts and pure compounds in triplicate for each concentration. Doxorubicin (Sigma-Aldrich, India) was used as a positive control, whereas DMSO served as a negative control. All extracts and pure compounds were dissolved in DMSO and added to the medium at a final concentration of 0.5% DMSO. Plates containing the test samples were incubated at 37 °C in a 5% CO2 atmosphere for 48 h. Following incubation, the cell culture supernatant was discarded, and 50 µL of MTT solution (5 mg/mL) (Thermo Fisher Scientific, Oregon, USA) was added to each well. The test plates were then incubated at 37 °C in a 5% CO2 atmosphere for 2 h. Subsequently, the supernatant was discarded, and 100 µL/well of DMSO was added to induce cell lysis and dissolve the formazan crystals. To estimate the reactions, absorbance was measured at 560 nm in a microplate reader, and the background absorbance at 670 nm was subtracted.
For orientation: Tetrazolium assays rely on reduction of a dye to a coloured formazan, in cell work by metabolically active cells.

The test system of another data set is Vero cells. Kind of data set: in vitro cytotoxicity, MTT assay. Type of data set: cell-based. To be noted: Vero cells, toxic when CC50 < 100 µM. The method, then: as §1
The next data set deals with heme polymerization. Also noted: method as in PMID 9199506. The note with it: cited from earlier work.
For another data set, the system named is P. falciparum D6. To be noted: cited from earlier work.
The subject of another data set is PfLDH. The note with it: cited from earlier work.
Data set [2] deals with P. falciparum FcB1/Colombia. Also noted: method as in PMID 15474559. To be noted: chloroquine-resistant P. falciparum FcB1/Colombia; cited from earlier work.
Setting [3] is: K1, pure compounds and reference drugs, 72 h, mean ± SD of three determinations.
The mark [4] stands for this setting: ratio of IC50 against P. falciparum K1.

Converted amounts (≈) assume the structure as drawn. “Also recorded” adds a separate entry of the source. Where two headings read alike, the source gives them in different places. Where only a bound is given, the exact number is not on record here.

What is called IC50 is the point on the concentration scale where inhibition reaches its midpoint. Turning to `C=CC(C)(C)c1c2c(c(O)c3c(=O)c4ccc(O)c(O)c4oc13)C=CC(C)(C)O2` [macluraxanthone], in the data set with P. falciparum 3D7, the IC50 is 4.28 µM.

In general, CC50 refers to the concentration that lowers cell viability or growth by half. Turning to `COc1cccc2c(=O)c3c(O)cccc3oc12` [Compound 2, 1-hydroxy-5-methoxyxanthone], the “antiplasmodial activity classification of pure compounds” value (“antiplasmodial activity classification” for short) in the data set on P. falciparum K1 strain is “low (low activity (IC50 100−200 µM))”. Moreover, the IC50 in the data set with P. falciparum K1 strain (setting [3]) was determined as 164 ± 1.71 µM. The molecule also yielded a CC50 at 48 h in data set [1] of 62 ± 1.18 µM. For the same molecule, in the data set on Vero cells, the “cytotoxicity classification of pure compounds” value (shortened to “cytotoxicity classification”) was “toxic (pure compounds are considered toxic to cells when the CC50 value is less than 100 µM)”.

Take `O=c1c2ccc(O)cc2oc2cccc(O)c12` [Compound 3, 1,6-dihydroxyxanthone]: the “antiplasmodial activity classification” value in the data set with P. falciparum K1 strain is “inactive”. In the data set on P. falciparum K1 strain (setting [3]), the IC50 came out at 226.1 ± 1.32 µM. Also, the CC50 in data set [1] (read-out: CC50 ± SD Vero cells) came out at 182.8 ± 1.62 µM. The “cytotoxicity classification” value in the data set on Vero cells is on record as “non-toxic”.

As to `COc1cc2c(=O)c3ccc(OC)c(OC)c3oc2c(OC)c1OC` [2,3,4,5,6-pentamethoxyxanthone], the heme polymerization inhibition entry in the data set with heme polymerization was “no in vitro antiplasmodial activity or heme polymerization”. Also, in the data set on P. falciparum D6 (same study as pentahydroxyxanthone), the “in vitro antiplasmodial activity” value is reported as “no in vitro antiplasmodial activity”.

For the molecule `O=c1c2cccc(O)c2oc2cccc(O)c12` [Compound 4, 1,5-dihydroxyxanthone], in the data set with P. falciparum K1 strain, the “Selectivity index (SI)” value is 3.89 and the “antiplasmodial activity classification” value is on record as “low (low activity (IC50 100−200 µM))”. The IC50 in the data set on P. falciparum K1 strain (setting [3]) is 107 ± 4.41 µM. The same molecule came in with a CC50 at 48 h in data set [1] of 416.7 ± 1.98 µM. In the data set on Vero cells, the “cytotoxicity classification” value is given as “non-toxic”.

`CCN(CC)CCCC(C)Nc1ccnc2cc(Cl)ccc12` (centres unmarked) [Chloroquine, chloroquine, reference compound]: the IC50 in the data set with P. falciparum K1 strain (K1, 72 h) was 0.32 µM. Also, in the data set with PfLDH, the PfLDH inhibition result is on record as “weak inhibitor”.

On to `CC1(C)C=Cc2c(cc(O)c3c(=O)c4ccc(O)c(O)c4oc23)O1` [isojacareubin], for which the IC50 in the data set on P. falciparum 3D7 was 11.5 µM.

Take `O=c1c2cccc(O)c2oc2cc(O)cc(O)c12` [1,3,5-trihydroxyxanthone]: the IC50 antiplasmodial activity in data set [2] is reported as 24.7 µg/mL (≈ 101 µM). Besides, the IC50 in the data set on P. falciparum D6 (P. falciparum D6, read-out: IC50 antiplasmodial activity) is more than 60000 nM.

`C=CC(C)(C)c1c2c(c(O)c3c(=O)c4cccc(O)c4oc13)C=CC(C)(C)O2` [caloxanthone C]: the IC50 antiplasmodial activity in data set [2] is 1.3 µg/mL (≈ 3.44 µM).

Consider `O=c1c2ccc(O)c(O)c2oc2c(O)c(O)c(O)cc12` [2,3,4,5,6-pentahydroxyxanthone], for which the IC50 with heme polymerization (read-out: IC50 in vitro heme polymerization) is 1200 nM; with P. falciparum D6 (chloroquine-sensitive P. falciparum D6, read-out: IC50 in vitro antiplasmodial activity), 400 nM.

Turning to `CC1(C)C=Cc2cc3c(=O)c4c(O)cccc4oc3c(O)c2O1` [Compound 5, rheediachromenoxanthone], in the data set on P. falciparum K1 strain, the “antiplasmodial activity classification” value is listed as “good (good activity (IC50 1−20 µM))”. Also, the IC50 with P. falciparum K1 strain (setting [3]) is 19.9 ± 0.72 µM. For the same molecule, in the data set with P. falciparum K1 strain (setting [4]), the “fold less potent than artesunate” value is given as ~6,643.3 fold, the “fold less potent than chloroquine” value is reported as “approximately 62.3 fold” and the “times more potent than 2,5-dihydroxy-1-methoxyxanthone (7)” value is listed as “approximately 2.3 times”. Further, the CC50 at 48 h in data set [1] stood at 112 ± 1.54 µM. In addition, the “cytotoxicity classification” value with Vero cells is listed as “no toxicity; also recorded: non-toxic”. The “cytotoxicity classification” value with Vero cells (listed as Rheediachromenoxanthone) is on record as “non-toxicity”.

For `COc1cc(O)c2c(=O)c3cccc(O)c3oc2c1` [Compound 6, 1,5-dihydroxy-3-methoxyxanthone], the “antiplasmodial activity classification” value in the data set on P. falciparum K1 strain is recorded as “low (low activity (IC50 100−200 µM))”. In the data set on P. falciparum K1 strain (setting [3]), the IC50 came to 198 ± 2.43 µM. The CC50 at 48 h in data set [1] was found to be 210.2 ± 1.74 µM. The “cytotoxicity classification” value in the data set on Vero cells is listed as “non-toxic”.

In data set [1], `COc1cccc2c1C(=O)c1c(O)c3c(c(O)c1C2=O)C[C@@](O)(C(=O)CO)C[C@@H]3O[C@H]1C[C@H](N)[C@H](O)[C@H](C)O1` [Doxorubicin, reference compound] displayed a CC50 at 48 h of 3.35 ± 0.28 µM.

For `COc1c(O)ccc2oc3c(O)cccc3c(=O)c12` [Compound 7, 2,5-dihydroxy-1-methoxyxanthone], in the data set on P. falciparum K1 strain, the “Selectivity index (SI)” value was 12.70 and the “antiplasmodial activity classification” value is “moderate (moderate activity (IC50 20−100 µM))”. Further, in the data set on P. falciparum K1 strain (setting [3]), the IC50 was determined as 46.3 ± 1.65 µM. In addition, the 50% cytotoxic concentration (CC50) at 48 h in data set [1] was 587.9 ± 2.18 µM. Also, the “cytotoxicity classification” value in the data set on Vero cells was “non-toxic”.

Turning to `COc1ccc2oc3cccc(O)c3c(=O)c2c1` [Compound 1, 1-hydroxy-7-methoxyxanthone], the “antiplasmodial activity classification” value in the data set with P. falciparum K1 strain is “inactive”. In the data set on P. falciparum K1 strain (setting [3]), the IC50 is 346 ± 3.51 µM. This molecule registered a CC50 at 48 h in data set [1] of 195.8 ± 1.68 µM. The “cytotoxicity classification” value in the data set on Vero cells is given as “non-toxic”.

With `C[C@H]1[C@H](OC(=O)CCC(=O)O)O[C@@H]2O[C@@]3(C)CC[C@H]4[C@H](C)CC[C@@H]1[C@@]24OO3` [Artesunate, artesunate, reference compound], the IC50 in the data set with P. falciparum K1 strain (setting [3]) is 0.003 µM.
